In patent US10556888B2, “Pyrazole compounds or salts thereof, preparation methods therefor, herbicidal compositions and use thereof” (QINGDAO KINGAGROOT CHEMICAL COMPOUNDS CO., LTD, priority 2015, dated 2020):

How the values were obtained:
Assay type in all cases: in vivo
[1] = system: main crop (wheat, corn, rice, soybean, cotton, oilseed, millet and sorghum); test: Post-emergence test experiment, main crops (Table 2); design: key: Level 10: completely dead; Level 9: above 90% growth inhibition rate; Level 8: above 80% growth inhibition rate; Level 7: above 70% growth inhibition rate; Level 6: above 60% growth inhibition rate; Level 5: above 50% growth inhibition rate; Level 4: above 30% growth inhibition rate; Level 3: above 20% growth inhibition rate; Level 2: above 10% growth inhibition rate; Level 1: above 1-10% growth inhibition rate; Level 0: no effect; conditions: 3 weeks after spraying, greenhouse
How it was run: (§1)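 Weed and crop seeds (wheat, corn, rice, soybean, cotton, oilseed, millet, sorghum) grown in soil in greenhouse; sprayed at 2-3 leaf stage, 2-3 weeks after sowing, with compound in acetone/Tween 80/water. Effects assessed after 3 weeks further greenhouse culture.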

Rice = test: Transplanted rice safety evaluation; design: key: Level 10: completely dead; Level 9: above 90% growth inhibition rate; Level 8: above 80% growth inhibition rate; Level 7: above 70% growth inhibition rate; Level 6: above 60% growth inhibition rate; Level 5: above 50% growth inhibition rate; Level 4: above 30% growth inhibition rate; Level 3: above 20% growth inhibition rate; Level 2: above 10% growth inhibition rate; Level 1: above 1-10% growth inhibition rate; Level 0: no effect; conditions: transplanted 3 leaf stage japonica rice, 21 days after treatment
Method: In addition, the rice field soil that loaded into the 1/1,000,000 ha pot was leveled to keep water storage at 3-4 cm depth. The 3 leaf stage rice (japonica rice) was transplanted at 3 cm of transplanting depth the next day. The compound of the present invention was treated by the same way after 5 days of transplantation. The fertility condition of Echinochloa, Scirpus juncoides, Bidens tripartite and Sagittaria trifolia 14 days after the treatment of the compound of the invention and the fertility condition of rice 21 days after the treatment of the compound of the invention respectively with the naked eye.

[2] = system: Monocotyledonous and dicotyledonous weed; test: Post-emergence test experiment, weed control effect (Table 2); design: key to weed control effect, Setaria viridis (level) / weed control effect, Rorippa indica (level) / weed control effect, Abutilon theophrasti (level) / weed control effect, Echinochloa crus-galli (level) / weed control effect, Digitaria sanguinalis (level): Level 10: completely dead; Level 9: above 90% growth inhibition rate; Level 8: above 80% growth inhibition rate; Level 7: above 70% growth inhibition rate; Level 6: above 60% growth inhibition rate; Level 5: above 50% growth inhibition rate; Level 4: above 30% growth inhibition rate; Level 3: above 20% growth inhibition rate; Level 2: above 10% growth inhibition rate; Level 1: above 1-10% growth inhibition rate; Level 0: no effect; conditions: 3 weeks after spraying, greenhouse
How it was run: as §1

Scirpus juncoides = test: Weed control effect evaluation in transplanted rice field; design: key: Level 10: completely dead; Level 9: above 90% growth inhibition rate; Level 8: above 80% growth inhibition rate; Level 7: above 70% growth inhibition rate; Level 6: above 60% growth inhibition rate; Level 5: above 50% growth inhibition rate; Level 4: above 30% growth inhibition rate; Level 3: above 20% growth inhibition rate; Level 2: above 10% growth inhibition rate; Level 1: above 1-10% growth inhibition rate; Level 0: no effect; conditions: transplanted rice field pot test, 14 days after treatment
Method: (§2) Rice field soil was loaded into a 1/1,000,000 ha pot. The seeds of Echinochloa, Scirpus juncoides, Bidens tripartite and Sagittaria trifolia were sowed and gently covered with soil, then left to stand still in greenhouse in the state of 0.5-1 cm of water storage. The tuber of Sagittaria trifolia was planted in the next day or 2 days later. It was kept at 3-4 cm of water storage thereafter. The weeds were treated by dripping the WP or SC water diluents prepared according to the common preparation method of the compounds of the present invention with pipette homogeneously to achieve specified effective amount when Echinochloa, Scirpus juncoides and Bidens tripartite reached 0.5 leaf stage and Sagittaria trifolia reached the time point of primary leaf stage.
(§3) The fertility condition of Echinochloa, Scirpus juncoides, Bidens tripartite and Sagittaria trifolia 14 days after the treatment of the compound of the invention and the fertility condition of rice 21 days after the treatment of the compound of the invention respectively with the naked eye.
(§4) The seeds of Echinochloa crus-galli, Scirpus juncoides and Monochoria vaginalis were collected from Heilongjing and Jiangsu Province of China.

Monochoria vaginalis = test: as above; design: key: Level 10: completely dead; Level 9: above 90% growth inhibition rate; Level 8: above 80% growth inhibition rate; Level 7: above 70% growth inhibition rate; Level 6: above 60% growth inhibition rate; Level 5: above 50% growth inhibition rate; Level 4: above 30% growth inhibition rate; Level 3: above 20% growth inhibition rate; Level 2: above 10% growth inhibition rate; Level 1: above 1-10% growth inhibition rate; Level 0: no effect; conditions: transplanted rice field pot test, 14 days after treatment
Method: as §2, §3, §4

Echinochloa crus-galli = test: as above; design: key: Level 10: completely dead; Level 9: above 90% growth inhibition rate; Level 8: above 80% growth inhibition rate; Level 7: above 70% growth inhibition rate; Level 6: above 60% growth inhibition rate; Level 5: above 50% growth inhibition rate; Level 4: above 30% growth inhibition rate; Level 3: above 20% growth inhibition rate; Level 2: above 10% growth inhibition rate; Level 1: above 1-10% growth inhibition rate; Level 0: no effect; conditions: transplanted rice field pot test, 14 days after treatment
Method: as §2, §3, §4

| Compound | effect on crop, corn (level) ([1]; 120 g/ha) | effect on crop, rice (level) ([1]; 120 g/ha) | effect on crop, wheat (level) ([1]; 120 g/ha) | Rice (safety, activity level) (Rice; application rate 500 g/ha) | weed control effect, Abutilon theophrasti (level) ([2]; 120 g/ha) | weed control effect, Bidens pilosa (level) ([2]; 120 g/ha) | weed control effect, Digitaria sanguinalis (level) ([2]; 120 g/ha) | weed control effect, Echinochloa crus-galli (level) ([2]; 120 g/ha) | weed control effect, Rorippa indica (level) ([2]; 120 g/ha) | weed control effect, Setaria viridis (level) ([2]; 120 g/ha) | Weed control effect, Scirpus juncoides (activity level) (Scirpus juncoides; application rate 500 g/ha) | Weed control effect, Monochoria vaginalis (activity level) (Monochoria vaginalis; application rate 500 g/ha) | Weed control effect, Echinochloa crus-galli (activity level) (Echinochloa crus-galli; application rate 500 g/ha) | Rice (safety, activity level) (Rice; application rate 60 g/ha) | Weed control effect, Scirpus juncoides (activity level) (Scirpus juncoides; application rate 60 g/ha) | Weed control effect, Monochoria vaginalis (activity level) (Monochoria vaginalis; application rate 60 g/ha) | Weed control effect, Echinochloa crus-galli (activity level) (Echinochloa crus-galli; application rate 60 g/ha) | other results |
| --- | --- | --- | --- | --- | --- | --- | --- | --- | --- | --- | --- | --- | --- | --- | --- | --- | --- | --- |
| Cc1ccn(Cc2c(S(C)(=O)=O)ccc(C(=O)c3c(C)nn(C)c3OC(=O)c3cn(C)nc3C)c2Cl)n1 [Compound 02] | 0 | 1 (Level 1: above 1-10% growth inhibition rate) | 0 | 0 | 8 (Level 8: above 80% growth inhibition rate) | 9 (Level 9: above 90% growth inhibition rate) | 2 (Level 2: above 10% growth inhibition rate) | 10 | 10 | 6 (Level 6: above 60% growth inhibition rate) | 10 | 9 (Level 9: above 90% growth inhibition rate) | 10 | – | – | – | – | – |
| Cc1ccn(Cc2c(S(C)(=O)=O)ccc(C(=O)c3cnn(C)c3OC(=O)c3cn(C)nc3C)c2Cl)n1 [Compound 06] | 0 | 1 (Level 1: above 1-10% growth inhibition rate) | 0 | 1 (Level 1: above 1-10% growth inhibition rate) | 7 (Level 7: above 70% growth inhibition rate) | 9 (Level 9: above 90% growth inhibition rate) | 2 (Level 2: above 10% growth inhibition rate) | 10 | 10 | 6 (Level 6: above 60% growth inhibition rate) | 10 | 10 | 10 | – | – | – | – | – |
| Cc1nn(C)cc1C(=O)Oc1c(C(=O)c2ccc(S(C)(=O)=O)c(Cn3cc(Cl)cn3)c2Cl)c(C2CC2)nn1C [Compound 10] | 0 | 1 (Level 1: above 1-10% growth inhibition rate) | 0 | 1 (Level 1: above 1-10% growth inhibition rate) | 7 (Level 7: above 70% growth inhibition rate) | 9 (Level 9: above 90% growth inhibition rate) | 2 (Level 2: above 10% growth inhibition rate) | 10 | 10 | 7 (Level 7: above 70% growth inhibition rate) | 10 | 10 | 10 | – | – | – | – | – |
| CCOc1c(C(=O)Oc2c(C(=O)c3ccc(S(C)(=O)=O)c(Cn4ccc(C)n4)c3Cl)cnn2C)cnn1C [Compound 24] | 0 | 0 | 0 | – | 6 (Level 6: above 60% growth inhibition rate) | 6 (Level 6: above 60% growth inhibition rate) | 1 (Level 1: above 1-10% growth inhibition rate) | 9 (Level 9: above 90% growth inhibition rate) | 4 (Level 4: above 30% growth inhibition rate) | 2 (Level 2: above 10% growth inhibition rate) | – | – | – | 1 (Level 1: above 1-10% growth inhibition rate) | 10 | 9 (Level 9: above 90% growth inhibition rate) | 10 | – |
| COCC(C)OCc1c(S(C)(=O)=O)ccc(C(=O)c2c(C)nn(C)c2OC(=O)c2cn(C)nc2C)c1Cl (stereo not shown) [Compound 36] | – | – | – | – | – | – | – | – | – | – | – | – | – | 0 | 10 | 10 | 9 (Level 9: above 90% growth inhibition rate) | effect on crop, corn (level) ([1]; 60 g/ha): 0; effect on crop, rice (level) ([1]; 60 g/ha): 1 (Level 1: above 1-10% growth inhibition rate); effect on crop, wheat (level) ([1]; 60 g/ha): 0; weed control effect, Abutilon theophrasti (level) ([2]; 60 g/ha): 10; weed control effect, Bidens pilosa (level) ([2]; 60 g/ha): 8 (Level 8: above 80% growth inhibition rate); weed control effect, Digitaria sanguinalis (level) ([2]; 60 g/ha): 10; weed control effect, Echinochloa crus-galli (level) ([2]; 60 g/ha): 10; weed control effect, Rorippa indica (level) ([2]; 60 g/ha): 10; weed control effect, Setaria viridis (level) ([2]; 60 g/ha): 7 (Level 7: above 70% growth inhibition rate) |
| Cc1nn(C)cc1C(=O)Oc1c(C(=O)c2ccc(S(C)(=O)=O)c(COCC(F)F)c2Cl)cnn1C [Compound 40] | – | – | – | – | – | – | – | – | – | – | – | – | – | 0 | 9 (Level 9: above 90% growth inhibition rate) | 9 (Level 9: above 90% growth inhibition rate) | 10 | effect on crop, corn (level) ([1]; 30 g/ha): 0; effect on crop, rice (level) ([1]; 30 g/ha): 5 (Level 5: above 50% growth inhibition rate); effect on crop, wheat (level) ([1]; 30 g/ha): 0; weed control effect, Abutilon theophrasti (level) ([2]; 30 g/ha): 7 (Level 7: above 70% growth inhibition rate); weed control effect, Bidens pilosa (level) ([2]; 30 g/ha): 7 (Level 7: above 70% growth inhibition rate); weed control effect, Digitaria sanguinalis (level) ([2]; 30 g/ha): 10; weed control effect, Echinochloa crus-galli (level) ([2]; 30 g/ha): 10; weed control effect, Rorippa indica (level) ([2]; 30 g/ha): 10; weed control effect, Setaria viridis (level) ([2]; 30 g/ha): 9 (Level 9: above 90% growth inhibition rate) |
| CCOCc1c(S(C)(=O)=O)ccc(C(=O)c2c(C3CC3)nn(C)c2OC(=O)c2cn(C)nc2C)c1Cl [Compound 46] | – | – | – | – | – | – | – | – | – | – | – | – | – | 0 | 9 (Level 9: above 90% growth inhibition rate) | 9 (Level 9: above 90% growth inhibition rate) | 8 (Level 8: above 80% growth inhibition rate) | effect on crop, corn (level) ([1]; 30 g/ha): 1 (Level 1: above 1-10% growth inhibition rate); effect on crop, rice (level) ([1]; 30 g/ha): 3 (Level 3: above 20% growth inhibition rate); effect on crop, wheat (level) ([1]; 30 g/ha): 0; weed control effect, Abutilon theophrasti (level) ([2]; 30 g/ha): 7 (Level 7: above 70% growth inhibition rate); weed control effect, Bidens pilosa (level) ([2]; 30 g/ha): 7 (Level 7: above 70% growth inhibition rate); weed control effect, Digitaria sanguinalis (level) ([2]; 30 g/ha): 10; weed control effect, Echinochloa crus-galli (level) ([2]; 30 g/ha): 10; weed control effect, Rorippa indica (level) ([2]; 30 g/ha): 10; weed control effect, Setaria viridis (level) ([2]; 30 g/ha): 10 |
